Source: US11090288B2, “Pyrazole derivatives and their uses thereof” (Canadian Blood Services, priority 2013, dated 2021)

Assays:
[1] = test system: monocytes (phagocytosis of anti-D opsonized RBCs); assay: Monocyte monolayer assay (MMA), phagocytosis of anti-D opsonized RBCs; assay type: cell-based; settings: percent inhibition of phagocytosis of anti-D opsonized RBCs by monocytes, compound at 5 micromolar; for inhibition at 5 µM: Monocyte
Experimental: Monocyte monolayer assay. The monocyte monolayer assay (MMA) was performed as previously described (Rampersad, G. C.; Suck, G; Sakac, D; Fahim, S; Foo, A; Denomme, G. A.; Langler, R. F.; Branch, D. R. Transfusion 2005, 45, 384; Foo, A. H.; Fletcher, S. P.; Langler, R. F.; Porter, C. H.; Branch, D. R. Transfusion 2007, 47, 290; Branch, D. R.; Gallagher, M. T.; Mison, A. P.; Sy Siok Hian, A. L.; Petz, L. D. Br. J. Haematol. 1984, 56, 19; Gallagher, M. T.; Branch, D. R.; Mison, A.; Petz, L. D. Exp. Hematol. 1983, 11, 82) in the above 4 references with slight modification. Briefly, peripheral blood mononuclear cells (PBMC) containing monocytes were isolated by ficoll-paque density gradient centrifugation and incubated overnight at 37° C. under 5% CO2 atmosphere. PBMCs were then layered onto chamber slides (Labtek, Thermo Scienctific) and incubated at 37° C., 5% CO2 for 1 hr to allow the monocytes to adhere. Following an aspiration of non-adherent cells, compounds were added at various concentrations to the adhered cells and further incubated for an additional hour. The compounds were aspirated and the monocytes treated with anti-D opsonized RBCs at the aforementioned incubation conditions for an additional 2 hrs. The slides were analyzed under phase microscopy for phagocytosis. A minimum of 100 monocytes were counted per sample and the number of observed RBCs that were phagocytosed were counted and normalized to a positive control to generate a phagocytosis index. Percent inhibition of phagocytosis was calculated as the percentage of control phagocytosis (phagocytosis of opsonized RBCs with compound diluent only).

[2] = test system: preventive mouse model of ITP (anti-platelet antibody, rat anti-mouse CD41); assay: Preventive mouse model of ITP, compound given IP or IV; assay type: in vivo, Mice (BALB/c); settings: i.p. (40 mg/kg) or i.v. (16 mg/kg); anti-CD41 1.4 μg daily from Day 0; FIG. 1
Experimental: Mice (BALB/c) were treated with an anti-platelet antibody (rat anti-mouse CD41 using 1.4 μg constant dose) daily starting at Day 0 to induce ITP. Platelet counts at Day 2, when a nadir is reached in this model, are shown for untreated mice, mice treated with anti-CD41 only, mice treated with IVIG (1 g/kg) (positive control for ITP amelioration), and mice treated with Compound 50 i.p. (40 mg/kg) or i.v. (16 mg/kg). Treatment groups: n=5 mice per group; control: n=3. Statistical significance by one-way ANOVA with Dunnett posthoc test and is indicated: ** p<0.01; *** p<0.001.

[3] = test system: preventive mouse model of ITP (anti-platelet antibody, rat anti-mouse CD41); assay: Preventive mouse model of ITP, compound given subcutaneously; assay type: in vivo, Mice; settings: SC twice per day (2 sites, 2 mg/ml) starting at Day 0; anti-CD41 1.4 μg daily; FIG. 2
Experimental: Mice were treated as above with an anti-platelet antibody (rat anti-mouse CD41 using 1.4 μg constant dose) daily starting at Day 0 to induce ITP. Compound 50 was given SC twice per day (2 sites, 2 mg/ml) starting at Day 0. IVIg (1 g/kg) was given on Day 2 for comparison as this is considered the therapeutic dose of IVIg. Treatment groups: n=5 mice per group; control (untreated): n=3. Statistical significance by one-way ANOVA with Dunnett posthoc test and is indicated: ** p<0.01; *** p<0.001.

| SMILES | inhibition at 5 µM [1] [%] | further results |
| --- | --- | --- |
| Cc1cc(OCc2cc(C)nn2-c2ccccc2)n(CC(=O)O)n1 [Compound 48, 2-(3-Methyl-5-((3-methyl-1-phenyl-1H-pyrazol-5-yl)methoxy)-1H-pyrazol-1-yl)acetic acid] | 4 to 10 | – |
| Cc1cc(CNCc2cc(C)nn2-c2ccccc2)n(-c2ccccc2)n1 [Compound 18, Bis((3-methyl-1-phenyl-1H-pyrazol-5-yl)methyl)amine] | 20 | – |
| Cc1cc(O)n(Cc2cc(C)nn2-c2ccccc2)n1 [Compound 50, 3-methyl-1-((3-methyl-1-phenyl-1H-pyrazol-5-yl)methyl)-1H-pyrazol-5-ol] | 27 to 58 | Amelioration of ITP (platelet counts at Day 2) [2]: ameliorates ITP; Amelioration of ITP [3]: efficacious for the amelioration of ITP |
| Cc1cc(OCCOc2cc(C)nn2-c2ccccc2)n(-c2ccccc2)n1 [Compound 20, 1,2-Bis(3-methyl-1-phenyl-1H-pyrazol-5-yloxy)ethane] | 4 to 14 | – |
| Cc1cc(COc2cc(C)nn2C2CCCC2)n(-c2ccccc2)n1 [Compound 41, 1-Cyclopentyl-3-methyl-5-((3-methyl-1-phenyl-1H-pyrazol-5-yl)methoxy)-1H-pyrazole] | ≤ 17 | – |
| Cc1cc(CCc2cc(C)nn2-c2ccccc2)n(-c2ccccc2)n1 [Compound 14, 1,2-Bis(3-methyl-1-phenyl-1H-pyrazol-5-yl)ethane] | ≤ 16 | – |
| Cc1cc(Oc2c(N)c(C)nn2-c2ccccc2)n(-c2ccccc2)n1 [Compound 24, 3-Methyl-5-(3-methyl-1-phenyl-1H-pyrazol-5-yloxy)-1-phenyl-1H-pyrazol-4-amine] | 2 | – |
| Cc1cc(Oc2c([N+](=O)[O-])c(C)nn2-c2ccccc2)n(-c2ccccc2)n1 [Compound 23, 3-Methyl-5-(3-methyl-1-phenyl-1H-pyrazol-5-yloxy)-4-nitro-1-phenyl-1H-pyrazole] | 12 | – |
| Cc1cc(OCC2CCCN2Cc2ccccc2)n(-c2ccccc2)n1 (stereo not shown) [Compound 53, 5-((1-Benzylpyrrolidin-2-yl)methoxy)-3-methyl-1-phenyl-1H-pyrazole] | 5 to 15 | – |
| Cc1cc(OCc2cc(C)nn2-c2ccccc2)n(CC2CCCCC2)n1 [Compound 37, 1-(Cyclohexylmethyl)-3-methyl-5-((3-methyl-1-phenyl-1H-pyrazol-5-yl)methoxy)-1H-pyrazole] | 33 to 45 | – |
| Cc1cc(OCc2cc(C)nn2-c2ccccc2)n(CCN)n1 [Compound 47, 2-(3-Methyl-5-((3-methyl-1-phenyl-1H-pyrazol-5-yl)methoxy)-1H-pyrazol-1-yl)ethanamine] | 5 to 33 | – |
| Cc1cc(COc2cc(C)nn2-c2ccccc2)n(-c2ccccc2)n1 [Compound 15, 3-Methyl-5-((3-methyl-1-phenyl-1H-pyrazol-5-yl)methoxy)-1-phenyl-1H-pyrazole] | ≤ 14 | – |
| Cc1cc(COc2cc(C)nn2-c2ccc([N+](=O)[O-])cc2)n(-c2ccccc2)n1 [Compound 28, 3-Methyl-5-({[3-methyl-1-(4-nitrophenyl)-1H-pyrazol-5-yl]oxy}methyl)-1-phenyl-1H-pyrazole] | 2 to 16 | – |
| Cc1cc(OCc2cc(C)nn2-c2ccccc2)[nH]n1 [Compound 49] | – | Activity @ 5 micromolar (%) [1]: 6-26% |
